Each structure is given as a SMILES string.

This test relates to CDK8 (phosphorylation of STAT1 at serine 727 in A549 cells). The experiment in a line: Cell based Phospho-STAT1 assay (IFNγ-stimulated A549 cells, AlphaLISA). As to conditions: Homo sapiens, A549, A549 cells, phospho-STAT1 after IFNγ stimulation. The procedure, abridged: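 A549 cells given serial compound dilutions for 1 h at 37 °C, then stimulated with IFNγ at 10 ng/mL final for 30 min. Lysate STAT1 Ser727 phosphorylation measured by AlphaLISA; % inhibition vs stimulated/unstimulated DMSO controls, IC50 by nonlinear regression.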
What is called IC50 is the concentration needed to halve the response being measured. In turn, `Cn1ncc2cc(-c3cnn4cccc(N5CCC(C#N)CC5)c34)ccc21` [Compound P-0405, 1-(3-(1-methyl-1H-indazol-5-yl)pyrazolo[1,5-a]pyridin-4-yl)piperidine-4-carbonitrile] gave an IC50 of 0.0001 to 0.1 µM.
The value for `O=C(NCc1ccc(-c2cnc3cccc(N4CCC5(CCNC5=O)CC4)n23)cc1)c1cccnc1` [Compound P-0449, N-(4-(5-(1-oxo-2,8-diazaspiro[4.5]decan-8-yl)imidazo[1,2-a]pyridin-3-yl)benzyl)nicotinamide] was 1 to 10 µM; that for `CS(=O)(=O)N1CCC(Oc2cccc3ncc(-c4ccc(-c5cnn(C(F)F)c5)cc4)n23)CC1` [Compound P-0298, 3-(4-(1-(difluoromethyl)-1H-pyrazol-4-yl)phenyl)-5-((1-(methylsulfonyl)piperidin-4-yl)oxy)imidazo[1,2-a]pyridine] was 1 to 10 µM.
To `CC(=O)N1CC=C(c2cccc3ncc(-c4ccc(-c5cnn(C)c5)cc4)n23)CC1` [Compound P-0436, 1-(4-(3-(4-(1-methyl-1H-pyrazol-4-yl)phenyl)imidazo[1,2-a]pyridin-5-yl)-3,6-dihydropyridin-1(2H)-yl)ethan-1-one] belongs 1 to 10 µM; to `FC(F)n1cc(-c2ccc(-c3cnc4cccc(OC5CCSCC5)n34)cc2)cn1` [Compound P-0348, 3-(4-(1-(difluoromethyl)-1H-pyrazol-4-yl)phenyl)-5-((tetrahydro-2H-thiopyran-4-yl)oxy)imidazo[1,2-a]pyridine], 1 to 10 µM; to `Cn1ncc2cc(-c3cnc4cccc(N5CCC(C#N)CC5)n34)ccc21` [Compound P-0361, 1-(3-(1-methyl-1H-indazol-5-yl)imidazo[1,2-a]pyridin-5-yl)piperidine-4-carbonitrile], 0.0001 to 0.1 µM.
The value for `Cn1cc(-c2ccc(-c3cnn4cccc(N5CCC(C#N)(c6ccccn6)CC5)c34)cc2)cn1` [Compound P-0365, 1-(3-(4-(1-methyl-1H-pyrazol-4-yl)phenyl)pyrazolo[1,5-a]pyridin-4-yl)-4-(pyridin-2-yl)piperidine-4-carbonitrile] was 0.0001 to 0.1 µM.
Consider `NC(=O)C1CC=C(c2cccc3ncc(-c4ccc(OCCN5CCCCC5)cc4)n23)CC1` (stereo not shown) [Compound P-0369, 4-(3-(4-(2-(piperidin-1-yl)ethoxy)phenyl)imidazo[1,2-a]pyridin-5-yl)cyclohex-3-ene-1-carboxamide], for which the concentration for half-maximal inhibition (IC50) was 1 to 10 µM.
The value for `Cn1cc(-c2ccc(-c3cnc4cccc(N5CCC6(CCNC6=O)CC5)n34)cc2)cn1` [Compound P-0450, 8-(3-(4-(1-methyl-1H-pyrazol-4-yl)phenyl)imidazo[1,2-a]pyridin-5-yl)-2,8-diazaspiro[4.5]decan-1-one] was 0.0001 to 0.1 µM; that for `Cn1cc(-c2ccc(-c3cnc4cccc(OC5CCOCC5)n34)cc2)cn1` [Compound P-0427, 3-(4-(1-methyl-1H-pyrazol-4-yl)phenyl)-5-((tetrahydro-2H-pyran-4-yl)oxy)imidazo[1,2-a]pyridine] was 0.1 to 1 µM.
The value for `CC(C)(O)C#Cc1cccn2ncc(-c3ccc(S(=O)(=O)N4CCCCC4)cc3)c12` [Compound P-0413, 2-methyl-4-(3-(4-(piperidin-1-ylsulfonyl)phenyl)pyrazolo[1,5-a]pyridin-4-yl)but-3-yn-2-ol] was 1 to 10 µM.
The value for `Cn1cc(-c2ccc(-c3cnc4cccc(NCc5cccnc5)n34)cc2)cn1` [Compound P-0377, 3-(4-(1-methyl-1H-pyrazol-4-yl)phenyl)-N-(pyridin-3-ylmethyl)imidazo[1,2-a]pyridin-5-amine] was 1 to 10 µM; that for `Cn1cc(-c2ccc(-c3cnc4cccc(NCC5CCOCC5)n34)cc2)cn1` [Compound P-0391, 3-(4-(1-methyl-1H-pyrazol-4-yl)phenyl)-N-((tetrahydro-2H-pyran-4-yl)methyl)imidazo[1,2-a]pyridin-5-amine] was 0.1 to 1 µM; that for `Cn1cc(-c2ccc(-c3cnc4cccc(NC5CCOCC5)n34)cc2)cn1` [Compound P-0388, 3-(4-(1-methyl-1H-pyrazol-4-yl)phenyl)-N-(tetrahydro-2H-pyran-4-yl)imidazo[1,2-a]pyridin-5-amine] was 0.1 to 1 µM.
Turning to `Cn1cc(-c2ccc(-c3cnn4cccc(C#CC5(O)CCNCC5)c34)cc2)cn1` [Compound P-0338, 4-((3-(4-(1-methyl-1H-pyrazol-4-yl)phenyl)pyrazolo[1,5-a]pyridin-4-yl)ethynyl)piperidin-4-ol], the IC50 lay within 0.1 to 1 µM.
To `Cn1cc(-c2ccc(-c3cnn4cccc(-c5cn[nH]c5)c34)cc2)cn1` [Compound P-0430, 3-(4-(1-methyl-1H-pyrazol-4-yl)phenyl)-4-(1H-pyrazol-4-yl)pyrazolo[1,5-a]pyridine] belongs 1 to 10 µM; to `CCOC(=O)C1CC=C(c2cccn3ncc(-c4ccc(-c5cnn(C)c5)cc4)c23)CC1` (stereo not shown) [Compound P-0446, ethyl 4-(3-(4-(1-methyl-1H-pyrazol-4-yl)phenyl)pyrazolo[1,5-a]pyridin-4-yl)cyclohex-3-ene-1-carboxylate], 0.1 to 1 µM; to `CNC(=O)C1CC=C(c2cccc3ncc(-c4ccc(-c5cnn(C)c5)cc4)n23)CC1` (stereo not shown) [Compound P-0417, N-methyl-4-(3-(4-(1-methyl-1H-pyrazol-4-yl)phenyl)imidazo[1,2-a]pyridin-5-yl)cyclohex-3-ene-1-carboxamide], 0.1 to 1 µM.
In turn, `Cn1cc(-c2ccc(-c3cnn4cccc(C5CCC(C#N)CC5)c34)cc2)cn1` (stereo not shown) [Compound P-0347, 4-(3-(4-(1-methyl-1H-pyrazol-4-yl)phenyl)pyrazolo[1,5-a]pyridin-4-yl)cyclohexane-1-carbonitrile] had an IC50 of 0.1 to 1 µM.
To `Cn1cc(-c2ccc(-c3cnc4cccc(N5CCC(C(N)=O)C5)n34)cc2)cn1` (stereo not shown) [Compound P-0378, 1-(3-(4-(1-methyl-1H-pyrazol-4-yl)phenyl)imidazo[1,2-a]pyridin-5-yl)pyrrolidine-3-carboxamide] belongs 0.1 to 1 µM; to `Cn1cc(-c2ccc(-c3cnn4cccc(-c5ccnc(C#N)c5)c34)cc2)cn1` [Compound P-0425, 4-[3-[4-(1-methylpyrazol-4-yl)phenyl]pyrazolo[1,5-a]pyridin-4-yl]pyridine-2-carbonitrile], 1 to 10 µM; to `CN1CCC(Oc2cccc3ncc(-c4ccc(-c5cnn(C)c5)cc4)n23)CC1` [Compound P-0439, 3-(4-(1-methyl-1H-pyrazol-4-yl)phenyl)-5-((1-methylpiperidin-4-yl)oxy)imidazo[1,2-a]pyridine], 0.0001 to 0.1 µM.
The molecule `Cn1cc(-c2ccc(-c3cnc4cccc(N5CCN(c6ccccn6)CC5)n34)cc2)cn1` [Compound P-0385, 3-(4-(1-methyl-1H-pyrazol-4-yl)phenyl)-5-(4-(pyridin-2-yl)piperazin-1-yl)imidazo[1,2-a]pyridine] returned an IC50 of 1 to 10 µM.
To `Cn1cc(-c2ccc(-c3cnc4cccc(N5CCC(O)CC5)n34)cc2)cn1` [Compound P-0397, 1-(3-(4-(1-methyl-1H-pyrazol-4-yl)phenyl)imidazo[1,2-a]pyridin-5-yl)piperidin-4-ol] belongs 0.1 to 1 µM.
The value for `CC(C)(C)OC(=O)N1CCC(Oc2cccc3ncc(-c4ccc(-c5cnn(C(F)F)c5)cc4)n23)CC1` [Compound P-0306, tert-butyl 4-((3-(4-(1-(difluoromethyl)-1H-pyrazol-4-yl)phenyl)imidazo[1,2-a]pyridin-5-yl)oxy)piperidine-1-carboxylate] was 1 to 10 µM; that for `Cn1cc(-c2ccc(-c3cnc4cccc(N5CCC(C(N)=O)CC5)n34)cc2)cn1` [Compound P-0400, 1-(3-(4-(1-methyl-1H-pyrazol-4-yl)phenyl)imidazo[1,2-a]pyridin-5-yl)piperidine-4-carboxamide] was 0.1 to 1 µM.
The molecule `Cc1noc(C)c1-c1ccc(-c2cnn3cccc(C#CC(C)(C)O)c23)cc1` [Compound P-0227, 4-(3-(4-(3,5-dimethylisoxazol-4-yl)phenyl)pyrazolo[1,5-a]pyridin-4-yl)-2-methylbut-3-yn-2-ol] yielded a half-inhibitory concentration (IC50) of 1 to 10 µM.
To `CC1(C#N)CCN(c2cccn3ncc(-c4ccc(-c5cnn(C(F)F)c5)cc4)c23)CC1` [Compound P-0404, 1-[3-[4-[1-(difluoromethyl)pyrazol-4-yl]phenyl]pyrazolo[1,5-a]pyridin-4-yl]-4-methyl-piperidine-4-carbonitrile] belongs 0.0001 to 0.1 µM; to `Cn1ncc2cc(-c3cnc4cccc(C5=CCC(C#N)CC5)n34)ccc21` (stereo not shown) [Compound P-0367, 4-(3-(1-methyl-1H-indazol-5-yl)imidazo[1,2-a]pyridin-5-yl)cyclohex-3-ene-1-carbonitrile], 0.0001 to 0.1 µM.
To `CNC(=O)N1CCC(Oc2cccc3ncc(-c4ccc(-c5cnn(C(F)F)c5)cc4)n23)CC1` [Compound P-0292, 4-((3-(4-(1-(difluoromethyl)-1H-pyrazol-4-yl)phenyl)imidazo[1,2-a]pyridin-5-yl)oxy)-N-methylpiperidine-1-carboxamide] belongs 1 to 10 µM.
To `CN1CCN(c2cccc3ncc(-c4ccc(-c5cnn(C)c5)cc4)n23)CC1` [Compound P-0394, 3-(4-(1-methyl-1H-pyrazol-4-yl)phenyl)-5-(4-methylpiperazin-1-yl)imidazo[1,2-a]pyridine] belongs 0.1 to 1 µM.
In the case of `CN1CCN(C(=O)c2ccc3cc(-c4cnn5cccc(C6=CCC(C#N)CC6)c45)ccc3c2)CC1` (stereo not shown) [Compound P-0356, 4-(3-(6-(4-methylpiperazine-1-carbonyl)naphthalen-2-yl)pyrazolo[1,5-a]pyridin-4-yl)cyclohex-3-ene-1-carbonitrile], the IC50 fell in the range of 0.0001 to 0.1 µM.
To `Cn1ncc2cc(-c3cnn4ccnc(N5CCC(C#N)CC5)c34)ccc21` [Compound P-0326, 1-[3-(1-methylindazol-5-yl)pyrazolo[1,5-a]pyrazin-4-yl]piperidine-4-carbonitrile] belongs 1 to 10 µM.
To `Cn1cc(-c2ccc(-c3cnc4cccc(N5CCC(C)(O)CC5)n34)cc2)cn1` [Compound P-0396, 4-methyl-1-(3-(4-(1-methyl-1H-pyrazol-4-yl)phenyl)imidazo[1,2-a]pyridin-5-yl)piperidin-4-ol] belongs 0.1 to 1 µM.
